Experimental data: patent US4584300A, “Platelet anti-aggregative- and calcium antagonistic -1,4-benzothiazin-3-one derivatives, compositions, and methods of use therefor” (Santen Pharmaceutical Co., Ltd., priority 1983, dated 1986)
Where a name gives a salt, the structure may show the parent alone.

System: guinea-pig teania coli
Experiment: Calcium-antagonistic activity: inhibition of CaCl2-evoked contraction of isolated guinea-pig teania coli
Format: tissue-based
Conditions: Cavia porcellus, 5 min; 50% inhibition of Ca^++-evoked contraction; CaCl2 3×10^-4 M; 5 minutes exposure; 32° C.
Description: The action potentials on the smooth muscles of uterus, teania coli and portal vein are dependent on calcium ion, and therefor these smooth muscle preparations are useful for screening of calcium antagonists. We measured the calcium-antagonistic activity of the compounds by the method using guinea-pig teania coli preparation.
Isolated guinea-pig teania coli was suspended in a 20 ml organ bath with Krebs solution at 32° C. and bubbled with 5% carbon dioxide in oxygen. After equilibration, the muscle was washed with Ca^++ -free Krebs solution, and when the muscle had relaxed to basal level, it was suspended in Ca^++ -free-high-K Krebs solution.
The muscle was exposed to test compounds for 5 minutes before addition of CaCl2, and the contraction evoked by CaCl2 (3×10^-4 M) was recorded isotonically. The calcium-antagonistic activity was represented by the concentration of test compound which elicited 50% inhibition of Ca^++ -evoked contraction (IC50).

First: COc1ccc(OCCCCN2CCC(C(=O)c3ccccc3)CC2)c(C2Sc3ccccc3N(C)C2=O)c1 (stereo not shown) [Compound 65]
Second: COc1ccc(OCCCCN2CCN(CC(=O)c3ccccc3)CC2)c(C2Sc3ccccc3N(C)C2=O)c1 (stereo not shown) [Compound 79]
The IC50 of the first is 2.2-fold lower: 1.8 µM for the first, 3.9 µM for the second.

Compared with `COc1ccc(CCN2CCN(CCCOc3ccc(C4Sc5ccccc5NC4=O)cc3)CC2)cc1OC` (stereo not shown) [Compound 71], `COc1ccc(OCCCCN2CCN(CCc3cc(OC)c(OC)c(OC)c3)CC2)c(C2Sc3ccccc3NC2=O)c1` (stereo not shown) [Compound 75] is 1.5-fold higher in IC50: 2 µM for the first, 3 µM for the second.

First: COc1ccc(OCCCN2CCN(CCc3cc(OC)c(OC)c(OC)c3)CC2)c(C2Sc3ccccc3N(C)C2=O)c1 (stereo not shown) [Compound 77]
Second: COc1ccc(OCCCN(C)C)c(C2Sc3ccccc3N(C)C2=O)c1 (stereo not shown) [Compound 61]
The IC50 of the first is 1.6-fold lower: 1.6 µM for the first, 2.5 µM for the second.

`CN(C)CCCOc1ccc(C2Sc3ccccc3N(C)C2=O)cc1` (stereo not shown) [Compound 72, 3,4-Dihydro-2-[4-(3-dimethylaminopropoxy)phenyl]-4-methyl-3-oxo-2H-1,4-benzothiazine] and `CN1C(=O)C(c2ccc(OCCCN(C)C3CCCCC3)cc2)Sc2ccccc21` (stereo not shown) [Compound 73] are within 1.5-fold of each other in IC50: 2.6 µM for the first, 3.4 µM for the second.

`CN(CCCOc1ccc(C2Sc3ccccc3NC2=O)cc1)C1CCCCC1` (stereo not shown) [Compound 68] and `COc1ccc(OCCCCCN(C)C2CCCCC2)c(C2Sc3ccccc3NC2=O)c1` (stereo not shown) [Compound 58] are within 1.5-fold of each other in IC50: 1.9 µM for the first, 2.6 µM for the second.

First: COc1ccc(OCC(O)CN2CCN(CC(=O)c3ccccc3)CC2)c(C2Sc3ccccc3N(C)C2=O)c1 (stereo not shown) [Compound 107, 3,4-Dihydro-2-[5-methoxy-2-[2-hydroxy-3-(4-phenacylpiperazino)propoxy]phenyl]-4-methyl-3-oxo-2H-1,4-benzothiazine dimaleate]
Second: COc1ccc(OCCCN(C)C2CCCCC2)c(C2Sc3ccccc3N(C)C2=O)c1 (stereo not shown) [Compound 62]
The IC50 of the first is 2.4-fold higher: 3.8 µM for the first, 1.6 µM for the second. The second is the more potent here.

Going from `COc1ccc(OCCCCCN(C)C2CCCCC2)c(C2Sc3ccccc3N(C)C2=O)c1` (stereo not shown) [Compound 64] to `COc1ccc(OCCCN(C)CCc2ccc(OC)c(OC)c2)c(C2Sc3ccccc3NC2=O)c1` (stereo not shown) [Compound 59], the IC50 falls from 3 µM to 2 µM (1.5-fold).

System: blood platelet (rabbit platelet rich plasma)
Experiment: Anti-aggregatory activity: inhibition of collagen- or ADP-induced platelet aggregation in vitro (PRP)
Format: cell-based
Conditions: Oryctolagus cuniculus, 50% inhibition of control response, collagen (3 μg/ml) or ADP (3 μM), table does not say which, 37° C.
Description: Blood was obtained from an anesthetized rabbit using 0.1 volumes of 3.8% sodium citrate as anticoagulant. Platelet rich plasma(PRP) was isolated by centrifugation at 650 rpm for 10 minutes at room temperature. After preincubation of PRP (0.25 ml) with various concentrations of test compounds (14 μl) for 1 minute at 37° C., collagen (3 μg/ml:final concentration) or ADP (3 μM:final concentration) was added to induce aggregation and the aggregation profiles were monitored with RIKADENKI six-channel aggregometer. The control experiment contained saline instead of test compound.
The anti-aggregatory activity was represented by the concentration of test compound which elicited 50% inhibition of control response.

`COc1ccc(OCCCN(C)C)c(C2Sc3ccccc3N(CCCN(C)C)C2=O)c1` (stereo not shown) [Compound 82, 3,4-Dihydro-2-[2-(3-dimethylaminopropoxy)-5-methoxyphenyl]-4-(3-dimethylaminopropyl)-3-oxo-2H-1,4-benzothiazine dioxalate] and `COc1ccc(OCCCN(C)C)c(C2Sc3ccccc3NC2=O)c1` (stereo not shown) [Compound 55, 3,4-dihydro-2-[2-(3-dimethylaminopropoxy)-5-methoxyphenyl]-3-oxo-2H-1,4-benzothiazine] are the same in IC50: 3.2 µM for the first, 3.2 µM for the second.

`COc1ccc(OCCCN2CCN(CC(=O)c3ccccc3)CC2)c(C2Sc3ccccc3NC2=O)c1` (stereo not shown) [Compound 76] and `COc1ccc(OCCCCN(C)C2CCCCC2)c(C2Sc3ccccc3NC2=O)c1` (stereo not shown) [Compound 57] are the same in IC50: 3.2 µM for the first, 3.2 µM for the second.

Going from `CN(C)CCCOc1ccc(C2Sc3ccccc3NC2=O)cc1` (stereo not shown) [Compound 67] to `COc1ccc(OCC(O)CNC(C)(C)C)c(C2Sc3ccccc3NC2=O)c1` (stereo not shown) [Compound 105, 2-[2-(3-tert-Butylamino-2-hydroxypropoxy)-5-methoxyphenyl]-3,4-dihydro-3-oxo-2H-1,4-benzothiazine], the IC50 falls from 1.6 µM to 1 µM (1.6-fold).

First: COc1ccc(OCC(O)CNC(C)(C)C)c(C2Sc3ccccc3N(C)C2=O)c1 (stereo not shown) [Compound 106]
Second: COc1ccc(OCCCCN(C)C2CCCCC2)c(C2Sc3ccccc3N(C)C2=O)c1 (stereo not shown) [Compound 63, 3,4-Dihydro-2-[5-methoxy-2-[4-(N-methylcyclohexylamino)butoxy]phenyl]-4-methyl-3-oxo-2H-1,4-benzothiazine oxalate]
The IC50 of the first is 2.5-fold lower: 1.3 µM for the first, 3.2 µM for the second.

For `COc1ccc(OCCCCN2CCN(CCc3cc(OC)c(OC)c(OC)c3)CC2)c(C2Sc3ccccc3N(C)C2=O)c1` (stereo not shown) [Compound 78], the IC50 was 3.5 µM.

System: not listed separately
Experiment: Acute toxicity test, oral
Conditions: mouse, in vivo, orally, male ddy-SLC mice
Description: Male ddy-SLC strain mice (4 weeks of age, weighing 19-21 g) were placed in a breeding room of constant temperature and huminity (23±1° C., 55±5%) and fed freely pellet diet and water ad. libitum for a week. Mice showing normal growth were selected for the test. (method of administration)
Test compounds are suspended in 0.5% tragacanth suspention and administered orally in a dose of 0.5 ml/20 g body weight.

First: COc1ccc(OCCCN2CCN(CCc3cc(OC)c(OC)c(OC)c3)CC2)c(C2Sc3ccccc3N(C)C2=O)c1 (stereo not shown) [Compound 77]
Second: CN1C(=O)C(c2ccc(OCCCN(C)C3CCCCC3)cc2)Sc2ccccc21 (stereo not shown) [Compound 73]
The LD50 of the first is higher: greater than 1280 mg/kg for the first, 500 to 1000 mg/kg for the second.
